{"source": "patent US10136645B2", "about": "“Antimicrobial composition” (MicroBio Solutions Inc., priority 2015, dated 2018)", "key": {"E. coli [1]": {"tested_on": "E. coli", "test": "Minimal bactericidal time (MBT) at different contact times", "format": "cell-based", "settings": "1000 active ppm H2O2 alone", "description": "(§1) The antimicrobial effectiveness of the compositions of the present invention was tested. In this experiment, the test organism was E. coli and the final bacterial concentrations was 10^6 to 10^7 cfu/ml. Inoculum was contacted with either the combinations of LAE/H2O2 or individual, at different active concentration levels for a contact time of 30 seconds or more. The aliquots of this contaminated solution is used for determinate the minimal bactericidal concentration (MBC) for kill bacteria in the aliquots at 30 sec. contact time. Table 1 summarizes the efficacy of each biocide and their blends, and the Synergy index of each combination. In the same condition the minimal bactericidal time (MBT) was also evaluate with a combination of LAE:H2O2 (1:10) at different contact time. The table 2 summarizes the minimal bactericidal time for each biocide and a blend."}, "[2]": {"tested_on": "Bacillus subtilis (ATCC#19659) spores", "test": "Sporicidal activity, quantitative suspension test EN 13704:2002", "format": "cell-based", "description": "The sporicidal activity of a given product is defined by its capacity to reduce at least by 3 log (cfu/ml) the amount of Bacillus subtilis bacterial spores in suspension, in the conditions established in the method.\nThe test organism in the form of a test suspension was prepared containing endospores from Bacillus subtilis (ATCC#19659). The endospores were specifically prepared from a culture grown on Nutrient agar, to which additional sporulation enhancements were added. Plates were harvested with sterile water and endospores were purified by repeated centrifugations and resuspensions in water. The final wash was in 70% w/w ethanol for 30 minutes, to ensure the death of all vegetative bacteria."}, "B. subtilis spore": {"tested_on": "B. subtilis spore", "test": "Spore germination inhibition in TSB with low concentration solution", "format": "cell-based, Bacillus subtilis", "settings": "low concentration solution (1:200 dilution); 30° C., 72 hours, visible growth", "description": "The spore contaminated media culture was then incubated at 30° C. for 72 hours for detect the germination of the spore by the presence of a visually detectable growth. Three replicates were completed per treatment."}, "E. coli [3]": {"tested_on": "E. coli", "test": "Minimal bactericidal concentration (MBC) at 30 sec. contact time", "format": "cell-based", "settings": "alone or in blend, 10^6 to 10^7 cfu/ml", "description": "as §1"}, "[4]": {"settings": "animal toxicological studies; cited from earlier work"}, "[5]": {"tested_on": "E. coli on raw chicken piece", "test": "Efficacy and residual growth inhibition on inoculated raw chicken pieces", "format": "cell-based", "from_the_text": "In the following example it is shown the residual effect of a combination of LAE/H2O2 compared with peracetic acid (PAA). The peracetic acid is often used in the food industry to sanitize food (fruit, vegetables, meat and poultry). The peracetic acid has a strong odor, is highly reactive and unstable when diluted and its use is limited to 80 ppm on food in the majority of countries worldwide regulation (e.g. US-FDA regulation 21CFR). For this example a solution of 200 ppm of lauric arginate with 1000 ppm of hydrogen peroxide is prepared and acidified to pH 2.5 using citric acid. The peracetic acid used is provided by Sigma-Aldrich.\nRaw chicken pieces of the same size and weight are first soaked in an inoculating solution containing E. coli and incubated 30 minutes at 30° C. to allow the adhesion of bacteria on the surfaces of the sample. All samples are then soaked in a disinfectant solution (LAE/H2O2 or PAA) or a control (water) for a period of 30 seconds followed by a drying period drip for 2 minutes. Three replicates were completed per treatment. After the treatment, the samples were submerged in a neutralizing growth medium (D/E Neutralizing Broth) to analyze the populations of E. coli after the treatment or stored at room temperature in a sterile bags 24 hours before analyzed for populations of E. coli."}}, "data": [{"smiles": "OO", "note": "[Example H2O2, hydrogen peroxide]", "values": [{"measurement": "MBT", "setting": "E. coli [1]", "result": ">5", "unit": "min"}, {"measurement": "Average Log 10 cfu/ml reduction after 10 minutes contact time", "setting": "[2]; high concentration treatment solution (10% H2O2)", "result": ">3", "unit": "Log 10 cfu/ml"}, {"measurement": "Spore germination inhibition activity", "setting": "B. subtilis spore", "result": "No inhibition"}]}, {"smiles": "CCCCCCCCCCCC(=O)N[C@@H](CCCN=C(N)N)C(=O)OCC", "note": "[LAE, Lauric arginate ethyl ester]", "values": [{"measurement": "MBC (active ppm) H2O2", "setting": "E. coli [3]; H2O2 concentration for complete kill", "result": 5000, "unit": "active ppm"}, {"measurement": "MBC (active ppm) LAE", "setting": "E. coli [3]; LAE concentration for complete kill", "result": ">350", "unit": "active ppm"}, {"measurement": "sporicidal activity", "setting": "[2]; LAE alone, result not shown", "result": "no significant difference with the control"}, {"measurement": "systemic No Observable Adverse Effect Levels (NOAEL)", "setting": "[4]", "result": "15,000 mg/L"}]}, {"smiles": "CC(=O)OO", "note": "[PAA, peracetic acid]", "values": [{"measurement": "Average Log10 cfu/sample 2 min. after treatment", "setting": "[5]; 30 seconds soak, 2 min drip drying, LAE/H2O2 200/1000 ppm pH 2.5", "result": 0.56, "unit": "Log10 cfu/sample"}, {"measurement": "Log10 reduction vs control 2 min. after treatment", "setting": "[5]; 30 seconds soak, LAE/H2O2 200/1000 ppm pH 2.5, PAA 80 ppm", "result": 3.81, "unit": "Log10"}, {"measurement": "Average Log10 cfu/sample 24 hours after treatment", "setting": "[5]; stored 24 hours at room temperature, LAE/H2O2 200/1000 ppm, PAA 80 ppm", "result": 2.51, "unit": "Log10 cfu/sample"}]}]}
